This is an account of results in paper PMC6391970, “Design, Synthesis and Characterization of Covalent KDM5 Inhibitors” (Angewandte Chemie (International Ed. in English), 2018).

Where two headings read alike, the source gives them in different places.

Data set [1] deals with T1, KDM4A (Homo sapiens, UniProt O75164).
T1 sequence (O75164 1-1064): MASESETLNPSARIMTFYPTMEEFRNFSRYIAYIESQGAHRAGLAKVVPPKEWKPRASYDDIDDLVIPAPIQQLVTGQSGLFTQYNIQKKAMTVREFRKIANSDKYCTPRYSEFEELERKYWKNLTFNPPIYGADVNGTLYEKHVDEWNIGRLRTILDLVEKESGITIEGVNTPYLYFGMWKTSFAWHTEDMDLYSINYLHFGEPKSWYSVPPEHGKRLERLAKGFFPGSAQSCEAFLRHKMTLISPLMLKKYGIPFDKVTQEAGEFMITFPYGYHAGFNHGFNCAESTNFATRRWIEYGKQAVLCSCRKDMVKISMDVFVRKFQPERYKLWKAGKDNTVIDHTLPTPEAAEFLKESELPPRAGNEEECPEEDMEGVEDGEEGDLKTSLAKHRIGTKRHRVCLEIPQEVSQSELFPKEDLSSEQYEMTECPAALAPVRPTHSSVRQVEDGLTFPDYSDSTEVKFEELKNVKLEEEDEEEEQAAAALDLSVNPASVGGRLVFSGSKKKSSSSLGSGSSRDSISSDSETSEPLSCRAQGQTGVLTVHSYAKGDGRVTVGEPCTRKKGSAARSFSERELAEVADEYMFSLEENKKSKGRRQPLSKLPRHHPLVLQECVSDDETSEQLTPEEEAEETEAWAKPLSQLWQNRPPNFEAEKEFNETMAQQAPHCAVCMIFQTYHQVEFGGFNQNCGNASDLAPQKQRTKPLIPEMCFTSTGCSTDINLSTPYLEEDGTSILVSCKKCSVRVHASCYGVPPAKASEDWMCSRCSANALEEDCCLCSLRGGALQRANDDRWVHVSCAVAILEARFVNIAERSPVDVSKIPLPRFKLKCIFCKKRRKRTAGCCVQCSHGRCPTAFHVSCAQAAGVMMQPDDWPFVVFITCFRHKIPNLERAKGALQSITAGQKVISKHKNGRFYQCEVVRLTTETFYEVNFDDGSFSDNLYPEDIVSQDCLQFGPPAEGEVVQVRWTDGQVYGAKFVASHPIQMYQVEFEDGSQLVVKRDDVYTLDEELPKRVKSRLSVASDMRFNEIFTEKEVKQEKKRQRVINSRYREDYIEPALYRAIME
The experiment in a line: KDM AlphaScreen selectivity panel, KDM4A. It is filed as biochemical. The conditions noted are these: for IC50: AlphaScreen after 120 min pre-incubation, read-out: KDM IC50 4A; for SI over KDM5B, 4A: KDM4A IC50/KDM5B IC50. As for the experimental part:
(§1) A panel of JmjC KDMs was tested by AlphaScreen to determine the selectivity of the compounds (Table S2). […]
(§2) KDM alpha screen selectivity
(§3) Inhibition of histone demethylases was assessed using the histone demethylase AlphaScreen assay (Amplified Luminescence Proximity Homogenous Assay) as previously reported.[4] The basis of this assay for lysine demethylases have been widely described.[5] In brief, the assay was performed in 384-well plate format using white proxiplates (PerkinElmer), and transfer of titrations of compounds (100 nl) was performed using an ECHO 550 acoustic dispenser […]
(§4) Tween- 20) containing the appropriate demethylase enzyme (see Supplementary table 1 for final concentrations) was transferred to each well of a 384-well proxiplate with a Multidrop™ Combi Reagent Dispenser, and the enzymes allowed to pre-incubate for 120 minutes with compound (final concentration of DMSO was 1%). After that time, the enzyme reaction was initiated by addition of 5 µl of a substrate mix consisting of Ketoglutarate (2-OG), Ferrous Ammonium Sulphate (FAS), L-Ascorbic Acid (LAA) and biotinylated peptide substrate (see Supporting table X for final assay concentrations) and the reaction incubated for the indicated time at room temperature. Reaction was stopped by the addition of 5 μl of assay buffer containing EDTA (7.5 mM) and NaCl (400 mM). Streptavidin Donor beads (0.08 mg/ml) and Protein-A conjugated acceptor beads (0.08 mg/ml) (AlphaScreen General IgG detection kit was from Perkin Elmer) were pre-incubated for 1 hour with an antibody to the product methyl mark (Supplementary Table 1) and the presence of biotin-H3-product was detected by addition of 5 µl of the pre-incubated AlphaScreen beads (final concentrations of 0.02 mg/ml with respect to acceptor and donor beads). Detection was allowed to proceed for 2 hour at room temperature and the assay plates read in a BMG Labtech Pherastar FS plate reader (excitation, 680 nm; emission, 570 […]
(§5) IC50(t) = Ki (1 + K ) . ( η . k .t − 1) (1) […]
(§6) Table S4. AlphaScreen assay conditions for the KDM selectivity panel
On the technique in general: Bead proximity is the source of the signal in Alpha formats.

Data set [2] concerns the target KDM5A (Homo sapiens, UniProt P29375). The experiment in a line: KDM AlphaScreen selectivity panel, KDM5A. It is filed as biochemical. The conditions noted are these: for SI over KDM5B, 5A: KDM5A IC50/KDM5B IC50. The method, then: as §1, §2, §3, §4, §5, §6
A short description of data set [3]: Caco-2 permeability. The class given is in vitro ADME. The conditions noted are these: human, Caco-2, Caco‐2 cells, A to B. On the technique in general: Caco-2 cells form a polarised layer with tight junctions and transporters.
[4] abbreviates: AlphaScreen after 120 min pre-incubation, read-out: KDM IC50 5A.

Sequence of KDM5A (P29375 whole entry): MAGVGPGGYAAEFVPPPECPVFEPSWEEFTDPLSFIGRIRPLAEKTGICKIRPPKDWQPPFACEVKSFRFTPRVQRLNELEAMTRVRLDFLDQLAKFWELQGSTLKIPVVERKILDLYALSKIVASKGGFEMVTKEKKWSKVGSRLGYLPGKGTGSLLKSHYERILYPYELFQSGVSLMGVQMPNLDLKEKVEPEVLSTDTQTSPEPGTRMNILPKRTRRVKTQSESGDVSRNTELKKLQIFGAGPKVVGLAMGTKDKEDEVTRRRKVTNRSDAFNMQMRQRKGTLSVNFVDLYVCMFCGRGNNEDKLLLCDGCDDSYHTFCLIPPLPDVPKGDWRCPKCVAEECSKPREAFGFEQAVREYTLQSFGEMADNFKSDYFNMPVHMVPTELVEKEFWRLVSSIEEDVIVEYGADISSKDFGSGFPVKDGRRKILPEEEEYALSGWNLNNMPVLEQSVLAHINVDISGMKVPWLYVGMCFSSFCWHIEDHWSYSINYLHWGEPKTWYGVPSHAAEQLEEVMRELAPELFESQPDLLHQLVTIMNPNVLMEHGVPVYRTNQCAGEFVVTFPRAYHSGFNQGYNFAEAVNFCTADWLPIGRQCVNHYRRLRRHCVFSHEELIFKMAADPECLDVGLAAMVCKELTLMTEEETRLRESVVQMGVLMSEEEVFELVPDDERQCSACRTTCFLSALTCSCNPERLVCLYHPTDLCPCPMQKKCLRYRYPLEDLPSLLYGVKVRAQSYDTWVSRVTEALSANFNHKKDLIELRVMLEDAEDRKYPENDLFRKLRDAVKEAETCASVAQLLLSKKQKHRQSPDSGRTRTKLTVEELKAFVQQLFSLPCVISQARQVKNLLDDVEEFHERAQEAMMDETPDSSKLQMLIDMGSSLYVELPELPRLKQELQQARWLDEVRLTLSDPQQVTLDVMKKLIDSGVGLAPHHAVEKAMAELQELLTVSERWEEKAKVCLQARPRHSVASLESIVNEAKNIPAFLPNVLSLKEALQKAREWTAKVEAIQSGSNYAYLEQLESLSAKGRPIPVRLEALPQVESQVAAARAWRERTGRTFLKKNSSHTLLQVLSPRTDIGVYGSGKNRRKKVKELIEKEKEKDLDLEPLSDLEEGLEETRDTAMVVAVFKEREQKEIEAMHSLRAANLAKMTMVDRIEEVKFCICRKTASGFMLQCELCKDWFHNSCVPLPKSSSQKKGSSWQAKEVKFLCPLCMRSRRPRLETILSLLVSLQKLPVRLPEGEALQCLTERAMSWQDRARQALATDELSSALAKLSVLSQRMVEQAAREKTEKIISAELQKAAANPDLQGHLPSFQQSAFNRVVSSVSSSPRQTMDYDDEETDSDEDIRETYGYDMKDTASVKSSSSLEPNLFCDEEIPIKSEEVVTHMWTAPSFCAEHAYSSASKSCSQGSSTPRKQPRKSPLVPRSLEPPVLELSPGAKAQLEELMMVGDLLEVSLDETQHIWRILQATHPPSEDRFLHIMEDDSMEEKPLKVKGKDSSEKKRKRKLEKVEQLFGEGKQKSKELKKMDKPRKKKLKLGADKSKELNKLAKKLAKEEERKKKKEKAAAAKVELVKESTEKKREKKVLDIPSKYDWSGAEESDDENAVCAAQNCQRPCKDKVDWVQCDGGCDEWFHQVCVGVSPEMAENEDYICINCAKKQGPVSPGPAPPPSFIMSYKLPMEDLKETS

What is called IC50 is the concentration that gives 50% inhibition. What is called Papp A→B is how fast a substance crosses the layer from the apical side. A higher Papp A→B goes with ready permeation. As for `C=CC(=O)Nc1cccc(CN(C)CCc2cnn(-c3nccc4c(=O)[nH]cnc34)c2)c1` [Compound 4], the results for the IC50 in data set [1] and in data set [2] (setting [4]) were 1200 ± 100 nM and 30 ± 4 nM, respectively. Besides, in data set [2], the “SI over KDM5B, 5A” value is listed as 1. In addition, the Papp A→B in data set [3] was less than 1.5 ×10⁻⁶ cm/s.

Take `CN(CCc1cnn(-c2nccc3c(=O)[nH]cnc23)c1)Cc1cccc(NC(=O)CCl)c1` [Compound 5]: in data set [1], the IC50 was 400 ± 100 nM and the “SI over KDM5B, 4A” value came out at 41. Further, in data set [2] (setting [4]), the IC50 is 30 ± 1 nM. For the same compound, the “SI over KDM5B, 5A” value in data set [2] is listed as 3. The compound also returned a Papp A→B in data set [3] of less than 1.5 ×10⁻⁶ cm/s.

In the case of `CN(C)C/C=C/C(=O)Nc1cccc(CN(C)CCc2cnn(-c3nccc4c(=O)[nH]cnc34)c2)c1` [Compound 6], the figures for the concentration for half-maximal inhibition (IC50) in data set [1] and in data set [2] (setting [4]) were 2400 ± 100 nM and 657 ± 7 nM, respectively. Besides, the Papp A→B in data set [3] is less than 1.5 ×10⁻⁶ cm/s.

Take `CC(C)c1c(-c2cnn(CCNC(=O)CCl)c2)[nH]c2c(C#N)cnn2c1=O` [Compound 7]: in data set [1], the “selectivity over KDM4A” value is reported as greater than 500 fold; the IC50 was 4600 ± 100 nM; the “SI over KDM5B, 4A” value is given as 653. Also, in data set [2] (120 minutes pre-incubation, read-out: KDM5A IC50), the IC50 amounted to 10 nM. For the same compound, in data set [2], the “SI over KDM5B, 5A” value is listed as 1. Besides, in data set [3], the apparent permeability from apical to basolateral (Papp A→B) was less than 0.76 ×10⁻⁶ cm/s.

Take `C=CC(=O)NCCOc1ccc(-c2[nH]c3c(C#N)cnn3c(=O)c2C(C)C)cc1` [Compound 9]: in data set [1], the IC50 worked out at 4600 ± 400 nM and the “SI over KDM5B, 4A” value is given as 71. Moreover, the IC50 in data set [2] (setting [4]) is 50 ± 2 nM. In data set [2], the “SI over KDM5B, 5A” value is reported as 1. Also, in data set [3], the Papp A→B was less than 0.76 ×10⁻⁶ cm/s.

On to `C=CC(=O)N1CCC(n2cc(-c3[nH]c4c(C#N)cnn4c(=O)c3C(C)C)cn2)CC1` [Compound 10], for which, in data set [1], the “selectivity over KDM4A” value is recorded as greater than 500 fold; the IC50 amounted to 12700 ± 600 nM; the “SI over KDM5B, 4A” value came to 742. Moreover, the IC50 in data set [2] (setting [4]) turned out to be 70 ± 8 nM. In data set [2], the “SI over KDM5B, 5A” value is 4. Further, the apical-to-basolateral permeability (Papp A→B) in data set [3] was less than 0.76 ×10⁻⁶ cm/s.

`CC(C)c1c(-c2cnn(C3CCN(C(=O)CCl)CC3)c2)[nH]c2c(C#N)cnn2c1=O` [Compound 11]: the IC50 came to 4300 ± 100 nM in data set [1] and 34 ± 2 nM in data set [2] (setting [4]). The “SI over KDM5B, 4A” value in data set [1] came to 479. Besides, the “SI over KDM5B, 5A” value in data set [2] amounted to 4. Also, the Papp A→B in data set [3] is less than 1.4 ×10⁻⁶ cm/s.
